Columns and labels:
Type in all cases: cell-based
AsPC-1 cells (G12D) = assay: Cell viability assay (CellTiter-Glo), AsPC-1 cells; details: Homo sapiens, ASPC1, 72 h, 3 days incubation, CellTiter-Glo luminescence, read-out: Inhibition of Cancerous Cells IC50 AsPC-1 (G12D)
Description: H358, H23, SW48, and AsPC-1 cells were cultured in RPMI 1640 media supplemented with 10% fetal bovine serum, streptomycin, and penicillin. Lovo and SW480 cells were cultured in DMEM media supplemented with 10% fetal bovine serum, streptomycin, and penicillin. The cell lines were plated in their respective medium supplemented with 2.5% fetal bovine serum, streptomycin, and penicillin. All cell lines were plated in white walled 96-well plates at 2,000 cells/well or 384-well plates at 500 cells/well, except Lovo, which were plated at 4,000 or 1,000 cells/well, respectively. The cells were incubated in DMSO (control) or a compound for 3 days at 37° C. under 5% CO2. A CELLTITER-GLO® reagent (100 μL) was then added to each well. After a 10 min incubation with shaking, luminescence was measured using an ENVISION® multimode plate reader.

H358 cells (G12C) = assay: Cell viability assay (CellTiter-Glo), H358 cells; details: Homo sapiens, NCI-H358, 72 h; H358 cells, 3 days incubation, CellTiter-Glo luminescence; read-out: Inhibition of Cancerous Cells IC50 H358 (G12C)
Procedure, shortened: (§1)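 Each cell line is treated with compound for 3 days at 37 °C under 5% CO2 in its own medium containing 2.5% FBS. ATP-based CellTiter-Glo luminescence, measured after 10 min shaking, serves as the viability signal relative to DMSO control.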

SW480 cells (G12V) = assay: Cell viability assay (CellTiter-Glo), SW480 cells; details: Homo sapiens, 72 h; SW480 cells, 3 days incubation, CellTiter-Glo luminescence; read-out: Inhibition of Cancerous Cells IC50 SW480 (G12V)
Procedure, shortened: as §1

Lovo cells (G13D) = assay: Cell viability assay (CellTiter-Glo), Lovo cells; details: Homo sapiens, 72 h; Lovo cells, 3 days incubation, CellTiter-Glo luminescence; read-out: Inhibition of Cancerous Cells IC50 Lovo (G13D)
Procedure, shortened: as §1

SW48 cells (wt) = assay: Cell viability assay (CellTiter-Glo), SW48 cells; details: Homo sapiens, 72 h; SW48 cells, 3 days incubation, CellTiter-Glo luminescence; read-out: Inhibition of Cancerous Cells IC50 SW48 (wt)
Procedure, shortened: as §1

Row | Structure (SMILES) | IC50 (AsPC-1 cells (G12D)) [nM] | IC50 (H358 cells (G12C)) [nM] | IC50 (SW480 cells (G12V)) [nM] | IC50 (Lovo cells (G13D)) [nM] | IC50 (SW48 cells (wt)) [nM]
1 | CN[C@@H](C)C(=O)N[C@H](C(=O)N1C[C@@H](NC(=O)CCCCCCOc2cc3nc(C)nc(N[C@H](C)c4cccc(Br)c4)c3cc2OC)C[C@H]1C(=O)N[C@@H]1CCCc2ccccc21)C1CCCCC1 [Compound B5, (2S,4S)-4-(7-((4-(((R)-1-(3-bromophenyl)ethyl)amino)-6-methoxy-2-methyl-quinazolin-7-yl)oxy)heptanamido)-1-((S)-2-cyclohexyl-2-((S)-2-(methylamino)propanamido)-acetyl)-N—((R)-1,2,3,4-tetrahydronaphthalen-1-yl)pyrrolidine-2-carboxamide] | 1500 | 650 | 440 | 770 | 750
2 | COc1cc2c(N[C@H](C)c3cccc(Br)c3)nc(C)nc2cc1OCCCCCCCCNC(=O)[C@H](CC(C)C)NC(=O)[C@@H](O)[C@H](N)Cc1ccccc1 [Compound B7, (S)-2-((2S,3R)-3-Amino-2-hydroxy-4-phenylbutanamido)-N-(8-((4-(((R)-1-(3-bromophenyl)ethyl)amino)-6-methoxy-2-methylquinazolin-7-yl)oxy)octyl)-4-methylpentanamide] | 1200 | 1300 | 610 | 680 | 920
3 | COc1cc2c(N[C@H](C)c3cccc(Br)c3)nc(C)nc2cc1OCCCCCCCCCCCCNC(=O)[C@H](CC(C)C)NC(=O)[C@@H](O)[C@H](N)Cc1ccccc1 [Compound B9, (S)-2-((2S,3R)-3-Amino-2-hydroxy-4-phenylbutanamido)-N-(12-((4-(((R)-1-(3-bromophenyl)ethyl)amino)-6-methoxy-2-methylquinazolin-7-yl)oxy)dodecyl)-4-methylpentanamide] | 2700 | 1200 | 960 | 730 | 1400

Continued, values first:

Row | IC50 (AsPC-1 cells (G12D)) [nM] | IC50 (H358 cells (G12C)) [nM] | IC50 (SW480 cells (G12V)) [nM] | IC50 (Lovo cells (G13D)) [nM] | IC50 (SW48 cells (wt)) [nM] | Structure (SMILES)
4 | 1500 | 1600 | 720 | 670 | 1300 | CN[C@@H](C)C(=O)N[C@H](C(=O)N1C[C@@H](NC(=O)CCCCCCCCCCCCOc2cc3nc(C)nc(N[C@H](C)c4cccc(Br)c4)c3cc2OC)C[C@H]1C(=O)N[C@@H]1CCCc2ccccc21)C1CCCCC1 [Compound B10, (2S,4S)-4-(13-((4-(((R)-1-(3-Bromophenyl)ethyl)amino)-6-methoxy-2-methyl-quinazolin-7-yl)oxy)tridecanamido)-1-((S)-2-cyclohexyl-2-((S)-2-(methylamino)propanamido)-acetyl)-N—((R)-1,2,3,4-tetrahydronaphthalen-1-yl)pyrrolidine-2-carboxamide]
5 | 960 | 530 | 360 | 390 | 530 | CN[C@@H](C)C(=O)N[C@H](C(=O)N1C[C@@H](NC(=O)CCCCCCCCCCOc2cc3nc(C)nc(N[C@H](C)c4cccc(Br)c4)c3cc2OC)C[C@H]1C(=O)N[C@@H]1CCCc2ccccc21)C1CCCCC1 [Compound B11, (2S,4S)-4-(11-((4-(((R)-1-(3-Bromophenyl)ethyl)amino)-6-methoxy-2-methyl-quinazolin-7-yl)oxy)undecanamido)-1-((S)-2-cyclohexyl-2-((S)-2-(methylamino)propanamido)-acetyl)-N—((R)-1,2,3,4-tetrahydronaphthalen-1-yl)pyrrolidine-2-carboxamide]
6 | 2700 | 1100 | 450 | 800 | 460 | CN[C@@H](C)C(=O)N[C@H](C(=O)N1C[C@@H](NC(=O)CCCCCCCCOc2cc3nc(C)nc(N[C@H](C)c4cccc(Br)c4)c3cc2OC)C[C@H]1C(=O)N[C@@H]1CCCc2ccccc21)C1CCCCC1 [Compound B12, (2S,4S)-4-(9-((4-(((R)-1-(3-Bromophenyl)ethyl)amino)-6-methoxy-2-methyl-quinazolin-7-yl)oxy)nonanamido)-1-((S)-2-cyclohexyl-2-((S)-2-(methylamino)propanamido)-acetyl)-N—((R)-1,2,3,4-tetrahydronaphthalen-1-yl)pyrrolidine-2-carboxamide]
